Results on 28 molecules are retold here after US20230414699A1, “TREATMENT OF DERMATOLOGICAL CONDITIONS” (MC2 Therapeutics Ltd, priority 2020, published 2023).

Where a name gives a salt, the structure may show the parent alone. Peptide text beside a SMILES is read from it.

In the first assay the test system is Bovine Serum Albumin (BSA). Briefly: In vitro protein carbamylation assay (14C-potassium cyanate, BSA). The class given is biochemical. The settings on record: 10 mM nucleophile, 75 μM BSA, 25 μM 14C-potassium cyanate, 37° C., 72 hours, n=3. The procedure:
200 μL of a 0.5% BSA solution, 200 μL of test solution and 100 μL of a 5 μCi/mL ^14C-Potassium Cyanate solution was mixed in an Eppendorf tube (corresponding to a final concentration of 75 μM BSA, 25 μM ^14C-Potassium Cyanate, and 10 mM nucleophile). Samples run in triplicates (n=3). The Eppendorf tubes were incubated at 37° C. for 72 hours (if not otherwise stated).
After incubation a volume of 100 μL of each sample was transferred to a new Eppendorf tube containing 100 μL of a 10% trichloroacetic acid (TCA) and kept at 4° C. overnight (for precipitation of BSA). Subsequently, the precipitated BSA was separated from the buffer by centrifugation (10000 rpm, 30 seconds). The supernatant was removed and the BSA pellet was resuspended in 200 μL of a 10% solution of cold TCA (4° C.). The pellet was recovered by centrifugation (10000 rpm, 30 seconds) and supernatant was discarded. The BSA pellet was resuspended in 100 μL purified water (MilliQ) and transferred to a scintillation vial. The Eppendorf tube (previously containing the BSA pellet) was rinsed with an additional 100 μL purified water which al was transferred to the relevant scintillation vial.
As for `CC(=O)N[C@@H](CS)C(=O)O` [Acetylcysteine, reference compound], the “Degree of carbamylation (% relative to HBSS control)” value came out at 14.3%.

Turning to `Cl.N=C(N)NCCC[C@H](N)C(=O)O` [Arg*HCl], the “Degree of carbamylation (% relative to HBSS control)” value was determined as 66.1%.

Consider `COC(=O)[C@H](Cc1ccccc1)NC(=O)[C@@H](N)CC(=O)O` [Aspartame] (HELM PEPTIDE1{D.F.[CO[*:1]]}$$$$V2.0), for which the “Degree of carbamylation (% relative to HBSS control)” value is 30.4%.

For the molecule `CC(C)C[C@H](NC(=O)[C@@H](O)[C@H](N)Cc1ccccc1)C(=O)O` [Bestatin, reference compound], the “Degree of carbamylation (% relative to HBSS control)” value is reported as 53.4%.

`CC1=NCC[C@@H](C(=O)O)N1` [Ectoine, reference compound]: the “Degree of carbamylation (% relative to HBSS control)” value is 97.9%.

With `N[C@@H](Cc1c[nH]cn1)C(=O)O` [Histidine], the “Degree of carbamylation (% relative to HBSS control)” value is listed as 61.1%.

As for `NCCNCC(=O)O` [N-β-aminoethyl-Gly], the “Degree of carbamylation (% relative to HBSS control)” value is 29.7%.

As for Ala-Gln, the “Degree of carbamylation (% relative to HBSS control)” value is reported as 34.8%.

Regarding Ala-Glu, the “Degree of carbamylation (% relative to HBSS control)” value was 20.4%.

Arg: the “Degree of carbamylation (% relative to HBSS control)” value is reported as 52.4%.

As for Gly-Gly, the “Degree of carbamylation (% relative to HBSS control)” value stood at 26.6%.

Turning to Gly-His, the “Degree of carbamylation (% relative to HBSS control)” value is listed as 22.6%.

For the molecule Gly-Ser, the “Degree of carbamylation (% relative to HBSS control)” value came to 33.1%.

For Ile-Pro, the “Degree of carbamylation (% relative to HBSS control)” value was determined as 41.4%.

Take Lys-Pro: the “Degree of carbamylation (% relative to HBSS control)” value is 28.6%.

As for Pro-Ser, the “Degree of carbamylation (% relative to HBSS control)” value is given as 41.9%.

For Ser-Pro, the “Degree of carbamylation (% relative to HBSS control)” value was found to be 26.4%.

Turning to Tetraglycine, the “Degree of carbamylation (% relative to HBSS control)” value is recorded as 24.9%.

For the molecule Tyr-Ala, the “Degree of carbamylation (% relative to HBSS control)” value was 26.1%.

Consider Tyr-Pro, for which the “Degree of carbamylation (% relative to HBSS control)” value is 32.8%.

With Val-Pro, the “Degree of carbamylation (% relative to HBSS control)” value was found to be 22.1%.

For the molecule Val-Tyr, the “Degree of carbamylation (% relative to HBSS control)” value amounted to 28.9%.

Still in this assay, the particulars now being: 10 mM nucleophile, 37° C., 72 hours; dissolved in HBSS:DMSO 90:10; neutralized by equimolar NaOH before use.
Take `CN(C)C(=N)NC(=N)N.Cl` [Metformin*HCl, reference compound]: the “Degree of carbamylation (% relative to HBSS control)” value came to 71.4%.

As to `CC(N)C12CC3CC(CC(C3)C1)C2.Cl` (stereo not drawn) [Rimantadine*HCl, reference compound], the “Degree of carbamylation (% relative to HBSS control)” value was 78.5%.

The assay is the same for the next values; noted with them: 10 mM nucleophile, 37° C., 72 hours; neutralized by equimolar NaOH before use.
With `N=C(N)c1ccc(OCCCCCOc2ccc(C(=N)N)cc2)cc1` [Pentamidine diisethionate, reference compound], the “Degree of carbamylation (% relative to HBSS control)” value is listed as 43.1%.

Take `NNCCc1ccccc1` [Phenelzine sulfate, reference compound]: the “Degree of carbamylation (% relative to HBSS control)” value was 9.8%.

Regarding “Sitagliptine phosphate [reference compound]”, the “Degree of carbamylation (% relative to HBSS control)” value was found to be 48.6%.

The same assay, now with this note: text statement referring to Example 3.
As for `CC1=NCC[C@@H](C(=O)O)N1` [Ectoine, reference compound], the “degree of carbamylation (%) relative to HBSS control, in words” value is on record as “high degree of carbamylation”.

The next assay concerns reconstructed human skin (Epiderm Full Thickness). Briefly: In vitro protein carbamylation assay using reconstructed human skin (Protein Carbamylation Sandwich ELISA). Format: cell-based. The settings on record: 0.5 M urea:isocyanate 99:1 + 200 μL 2% nucleophile solution, apical, six days. Here is the method: Epiderm Full Thickness (Epiderm FT, MatTek Corp., USA) tissues were transferred to B6 trays containing EpiDermTM Full Thickness Maintenance Medium (MatTek Corp., USA) immediately upon arrival and incubated for 24 hours at 37° C. and 5% CO2. […] At day 6, the treatment solutions and the maintenance medium were removed from the tissues, and pre-warmed phosphate buffered saline (DPBS, Sigma-Aldrich) was added and removed twice before the tissues were submitted for ELISA and histological analysis. The 7 different conditions were tested on four different tissues where one tissue from each treatment was submitted for ELISA and the remaining three tissues were submitted for histological analysis. Overview of Treatment Solutions Added to the Apical Compartment • 1. […] The concentration used was selected to resemble the approximate concentration of urea in urine (Liu et. al. 2012). Experimental procedure for protein extraction was modified from Ross-Hansen et al., 2014 and Palosuo et al., 1998. The cell covered […] filters (Mattek) were cut from the plastic insertion ring, and the cell layer gently peeled of the membrane with a scalpel. […] Samples were analysed undiluted in a Protein Carbamylation Sandwich ELISA (Cell Biolabs Inc cat no STA-877).
For the molecule `N[C@@H](CC(=O)N1CCn2c(nnc2C(F)(F)F)C1)Cc1cc(F)c(F)cc1F` [Sitagliptin], the “inhibition of protein carbamylation (ELISA, FIG. 2)” value was “did not show complete inhibition”.

The next assay relates to reconstructed human skin (EpiDermFT). Briefly: Histological analysis (H&E) of reconstructed human skin samples treated with urea:isocyanate. The class given is cell-based. The settings on record: 0.5 M urea:isocyanate 99:1 + 200 μL 2% nucleophile solution, six days; vs control treated with only urea:isocyanate. Here is the method: Epiderm Full Thickness (Epiderm FT, MatTek Corp., USA) tissues were transferred to B6 trays containing EpiDerm™ Full Thickness Maintenance Medium (MatTek Corp., USA) immediately upon arrival and incubated for 24 hours at 37° C. and 5% CO2. […] At day 6, the treatment solutions and the maintenance medium were removed from the tissues, and pre-warmed phosphate buffered saline (DPBS, Sigma-Aldrich) was added and removed twice before the tissues were submitted for ELISA and histological analysis. The 7 different conditions were tested on four different tissues where one tissue from each treatment was submitted for ELISA and the remaining three tissues were submitted for histological analysis. Overview of Treatment Solutions Added to the Apical Compartment • 1. […] EpiDermFT membranes were app. 1 cm in diameter and were fixed in formalin for 5 days. Membranes were cut into halves using a scissors and placed into histogel matrix aiming at having the cut surface as the tissue sectioning surface. The samples were dehydrated in alcohol and xylene and embedded in paraffin using a standard paraffin embedding procedure. Sections were cut at 4 μm for Hematoxylin and Eosin (H&E) staining and immunohistochemistry (IHC). Images were acquired using a 20× objective with a Zeiss AxioScan. Representative areas were selected for presentation. […]
With `N[C@@H](CC(=O)N1CCn2c(nnc2C(F)(F)F)C1)Cc1cc(F)c(F)cc1F` [Sitagliptin], the “attachment of epidermis / reduction of skin damage (H&E, FIG. 3)” value is listed as “least effect”.
